Legend:
[1] = tested on: patients with high-risk smoldering multiple myeloma (SMM); test: Phase II trial (E-PRISM): safety and tolerability, adverse events graded by CTCAE v4.0; details: in vivo
Procedure: In the treatment schema a cycle is defined as 28 consecutive days. In cycles 1 and 2, 10 mg/kg of intravenous push Elotuzumab were administered on days 1, 8, 15, and 22. In cycles 3-4, it was administered on days 1 and 15. A 25 mg dose of oral Lenalidomide was administered on days 1-21 of each cycle. In Arm A, 40 mg of oral Dexamethasone were administered on days 1, 8, 15, and 22 in cycles 1 and 2 and on days 1, 8, and 15 in cycles 3-8. Patients on maintenance treatment (cycles 9-24) were administered 20 mg/kg of intravenous push Elotuzumab on day 1 and 15 mg oral Lenalidomide on days 1-21. All patients received thromboprophylaxis.
Toxicities were monitored throughout the study and for up to 30 days after the last dose of the study drug. Adverse events (AEs) were graded according to the National Cancer Institute Common Terminology Criteria for Adverse Events (CTCAE; version 4.0; Bethesda, MD). In addition, neuropathy symptoms were assessed using the FACT/GOG-Neuropathy questionnaire (Version 4.0). Efficacy was measured using the IWMG criteria for response^31.
Forty-nine patients experienced at least one toxicity while on study with worst grades of 1-mild (n=0), 2-moderate (n=11/51, 22%), and 3-severe (n=29/51, 57%), 4-life threatening (n=7/51, 14%), and 5-fatal (n=2/51, 4%). […]

[2] = tested on: immune system in patients with SMM; details: trial of Lenalidomide and Dexamethasone; cited from earlier work

C[C@@H]1C[C@H]2[C@@H]3CCC4=CC(=O)C=C[C@]4(C)[C@@]3(F)[C@@H](O)C[C@]2(C)[C@@]1(O)C(=O)CO [Dexamethasone]
Effect of Dexamethasone dose on type or frequency of treatment-related toxicities [1]: no effect | Effect of once weekly high-dose Dexamethasone on the immune system [2]: does not have a detrimental effect
